# Results taken from US20260262643A1, “HERBICIDAL BENZOXAZINES” (FMC CORPORATION, priority 2022, published 2026).
# Experiments:
# [1] = tested on: ryegrass, Italian; test: Test C preemergence; assay type: in vivo, Lolium multiflorum
# Outline: (§1)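 Seeds in loam–sand blend received preemergence directed soil spray of test chemicals in non-phytotoxic solvent with surfactant; postemergence treatment was applied at one- to two-leaf stage (2–10 cm). After 10 days in greenhouse, injury rated visually versus untreated controls, 0 (no effect) to 100 (complete control).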
# [2] = tested on: rice; test: Test D flooded paddy test; assay type: in vivo, Oryza sativa; conditions: 250 g ai/ha, applied to paddy water, visual rating after 13 to 14 days, scale 0 to 100 (0 no effect, 100 complete control)
# Outline: (§2)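 Seedlings reached the 2-leaf stage, then pots were flooded to 3 cm over the soil surface. Compound was applied into the water, depth was maintained, and plants stayed in the greenhouse 13 to 14 days before visual scoring (0–100) relative to controls.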
# [3] = tested on: galium; test: Test C postemergence; assay type: in vivo, Galium aparine; conditions: 10 days, 0 to 100 scale (0 no effect, 100 complete control)
# Outline: as §1
# [4] = tested on: wheat; test: Test C preemergence; assay type: in vivo, Triticum aestivum
# Outline: as §1
# [5] = tested on: oat, wild; test: Test C postemergence; assay type: in vivo, Avena fatua; conditions: 10 days, 0 to 100 scale (0 no effect, 100 complete control)
# Outline: as §1
# [6] = tested on: ryegrass, Italian; test: Test C postemergence; assay type: in vivo, Lolium multiflorum; conditions: 10 days, 0 to 100 scale (0 no effect, 100 complete control)
# Outline: as §1
# [7] = tested on: soybean; test: Test C preemergence; assay type: in vivo, Glycine max
# Outline: as §1
# [8] = tested on: barnyardgrass; test: Test C postemergence; assay type: in vivo, Echinochloa crusgalli; conditions: 10 days, 0 to 100 scale (0 no effect, 100 complete control)
# Outline: as §1
# [9] = tested on: green foxtail; test: Test C preemergence; assay type: in vivo, Setaria viridis
# Outline: as §1
# [10] = tested on: green foxtail; test: Test C postemergence; assay type: in vivo, Setaria viridis; conditions: 10 days, 0 to 100 scale (0 no effect, 100 complete control)
# Outline: as §1
# [11] = tested on: oat, wild; test: Test C preemergence; assay type: in vivo, Avena fatua
# Outline: as §1
# [12] = tested on: sedge, umbrella; test: Test D flooded paddy test; assay type: in vivo, Cyperus difformis; conditions: 250 g ai/ha, applied to paddy water, visual rating after 13 to 14 days, scale 0 to 100 (0 no effect, 100 complete control)
# Outline: as §2
# [13] = tested on: ducksalad; test: Test D flooded paddy test; assay type: in vivo, Heteranthera limosa; conditions: 250 g ai/ha, applied to paddy water, visual rating after 13 to 14 days, scale 0 to 100 (0 no effect, 100 complete control)
# Outline: as §2
# [14] = tested on: horseweed; test: Test C postemergence; assay type: in vivo, Erigeron canadensis; conditions: 10 days, 0 to 100 scale (0 no effect, 100 complete control)
# Outline: as §1
# [15] = tested on: pigweed, palmer; test: Test C postemergence; assay type: in vivo, Amaranthus palmeri; conditions: 10 days, 0 to 100 scale (0 no effect, 100 complete control)
# Outline: as §1
# [16] = tested on: soybean; test: Test C postemergence; assay type: in vivo, Glycine max; conditions: 10 days, 0 to 100 scale (0 no effect, 100 complete control)
# Outline: as §1
# [17] = tested on: ragweed; test: Test C postemergence; assay type: in vivo, Ambrosia artemisiifolia; conditions: 10 days, 0 to 100 scale (0 no effect, 100 complete control)
# Outline: as §1
# [18] = tested on: pigweed, palmer; test: Test C preemergence; assay type: in vivo, Amaranthus palmeri
# Outline: as §1
# [19] = tested on: barnyardgrass; test: Test D flooded paddy test; assay type: in vivo, Echinochloa crus-galli; conditions: 250 g ai/ha, applied to paddy water, visual rating after 13 to 14 days, scale 0 to 100 (0 no effect, 100 complete control)
# Outline: as §2
# [20] = tested on: kochia; test: Test C preemergence; assay type: in vivo, Bassia scoparia
# Outline: as §1
# [21] = tested on: blackgrass; test: Test C preemergence; assay type: in vivo, Alopecurus myosuroides
# Outline: as §1
# [22] = tested on: kochia; test: Test C postemergence; assay type: in vivo, Bassia scoparia; conditions: 10 days, 0 to 100 scale (0 no effect, 100 complete control)
# Outline: as §1
# [23] = tested on: corn; test: Test C postemergence; assay type: in vivo, Zea mays; conditions: 10 days, 0 to 100 scale (0 no effect, 100 complete control)
# Outline: as §1
# [24] = tested on: corn; test: Test C preemergence; assay type: in vivo, Zea mays
# Outline: as §1
# [25] = tested on: barnyardgrass; test: Test C preemergence; assay type: in vivo, Echinochloa crusgalli
# Outline: as §1
# [26] = tested on: ragweed; test: Test C preemergence; assay type: in vivo, Ambrosia artemisiifolia
# Outline: as §1
# [27] = tested on: wheat; test: Test C postemergence; assay type: in vivo, Triticum aestivum; conditions: 10 days, 0 to 100 scale (0 no effect, 100 complete control)
# Outline: as §1
# [28] = tested on: blackgrass; test: Test C postemergence; assay type: in vivo, Alopecurus myosuroides; conditions: 10 days, 0 to 100 scale (0 no effect, 100 complete control)
# Outline: as §1
# [29] = 500 g ai/ha, preemergence, 0 to 100 scale (0 no effect, 100 complete control)
# [30] = Preemergence, 125 g ai/ha, 0 to 100 scale, 0 no effect, 100 complete control
smiles,measurement,setting,value
CCOC[C@H]1CN(C(=O)c2cc(-n3cnc(C4CCC4)n3)cc3c2OCCO3)c2cccc(Cl)c2O1 [Compound 386],"Ryegrass, Italian plant response rating",[1]; [29],80
same,"Plant response rating, Ryegrass, Italian",[1]; [30],50
same,"Plant response rating, Rice (Flood)",[2],0
same,"Plant response rating, Galium","[3]; 500 g ai/ha, postemergence",100
same,"Plant response rating, Galium","[3]; Postemergence, 125 g ai/ha",100
same,Wheat plant response rating,[4]; [29],0
same,"Plant response rating, Wheat",[4]; [30],0
same,"Plant response rating, Oat, Wild","[5]; 500 g ai/ha, postemergence",0
same,"Plant response rating, Oat, Wild","[5]; Postemergence, 125 g ai/ha",0
same,"Plant response rating, Ryegrass, Italian","[6]; 500 g ai/ha, postemergence",60
same,"Plant response rating, Ryegrass, Italian","[6]; Postemergence, 125 g ai/ha",40
same,Soybean plant response rating,[7]; [29],100
same,"Plant response rating, Soybean",[7]; [30],50
same,"Plant response rating, Barnyardgrass","[8]; 500 g ai/ha, postemergence",30
same,"Plant response rating, Barnyardgrass","[8]; Postemergence, 125 g ai/ha",20
same,"Foxtail, Green plant response rating",[9]; [29],90
same,"Plant response rating, Foxtail, Green",[9]; [30],40
same,"Plant response rating, Foxtail, Green","[10]; 500 g ai/ha, postemergence",50
same,"Plant response rating, Foxtail, Green","[10]; Postemergence, 125 g ai/ha",10
same,"Oat, Wild plant response rating",[11]; [29],40
same,"Plant response rating, Oat, Wild",[11]; [30],30
same,"Plant response rating, Sedge, Umbrella (Flood)",[12],0
same,"Plant response rating, Ducksalad (Flood)",[13],0
same,"Plant response rating, Horseweed","[14]; 500 g ai/ha, postemergence",60
same,"Plant response rating, Horseweed","[14]; Postemergence, 125 g ai/ha",30
same,"Plant response rating, Pigweed, Palmer","[15]; 500 g ai/ha, postemergence",100
same,"Plant response rating, Pigweed, Palmer","[15]; Postemergence, 125 g ai/ha",80
same,"Plant response rating, Soybean","[16]; 500 g ai/ha, postemergence",100
same,"Plant response rating, Soybean","[16]; Postemergence, 125 g ai/ha",100
same,"Plant response rating, Ragweed","[17]; 500 g ai/ha, postemergence",80
same,"Plant response rating, Ragweed","[17]; Postemergence, 125 g ai/ha",50
same,"Pigweed, Palmer plant response rating",[18]; [29],100
same,"Plant response rating, Pigweed, Palmer",[18]; [30],100
same,"Plant response rating, Barnyardgrass (Flood)",[19],0
same,Kochia plant response rating,[20]; [29],70
same,"Plant response rating, Kochia",[20]; [30],70
same,Blackgrass plant response rating,[21]; [29],0
same,"Plant response rating, Blackgrass",[21]; [30],0
same,"Plant response rating, Kochia","[22]; 500 g ai/ha, postemergence",90
same,"Plant response rating, Kochia","[22]; Postemergence, 125 g ai/ha",80
same,"Plant response rating, Corn","[23]; 500 g ai/ha, postemergence",20
same,"Plant response rating, Corn","[23]; Postemergence, 125 g ai/ha",10
same,Corn plant response rating,[24]; [29],20
same,"Plant response rating, Corn",[24]; [30],0
same,Barnyardgrass plant response rating,[25]; [29],70
same,"Plant response rating, Barnyardgrass",[25]; [30],40
same,Ragweed plant response rating,[26]; [29],80
same,"Plant response rating, Ragweed",[26]; [30],20
same,"Plant response rating, Wheat","[27]; 500 g ai/ha, postemergence",10
same,"Plant response rating, Wheat","[27]; Postemergence, 125 g ai/ha",10
same,"Plant response rating, Blackgrass","[28]; 500 g ai/ha, postemergence",50
same,"Plant response rating, Blackgrass","[28]; Postemergence, 125 g ai/ha",0
